Several values for one entry are separate records, joined by “and”; a condition that tells them apart may be missing. Equal values may be shown once. Marks after values point to notes of the source that are not given here. Where a SMILES comes first, the peptide text is derived from it.
What was measured:
[1] = tested on: white outbred male mice; test: Acute toxicity according to Kerber, single intramuscular administration; type: in vivo
Method: The study of the general toxic activity of dipeptide L-Lys-L-Glu was conducted in compliance with “The rules of pre-clinical estimation of safety of pharmacological Substances (GLP)”—
The purpose of the study consisted of the identification of tolerable toxic doses of the drug, estimation of stage and character of pathological alterations in various organs and systems of the organism and determination of correlation between toxic effect related to dose and duration of drug application.
The estimation of acute toxicity of dipeptide L-Lys-L-Glu was conducted according to Kerber. The study was carried out on 66 white outbred male mice with body weight 20-23 g, kept under standard regimen and fed with standard chow in the vivarium. The animals were divided at random into 6 equal groups of 11 mice each. The animals were exposed to single administration of the drug intramuscularly, 0.25 ml in doses 1 mg/kg, 2 mg/kg, 3 mg/kg, 4 mg/kg, 5 mg/kg, several thousand times exceeding therapeutic dose recommended for clinical trial. Control animals were administered sodium chloride solution in the same amount.

[2] = tested on: purulent incised crushed wounds of the femural soft tissues; test: Healing of purulent incised crushed wounds of the soft tissues; type: in vivo, shinshilla rabbits; design: key to Fibroblasts / Histiocytes / Leukocyles / Macrophases / Necrosis: 1 point - absent; 2 points - single (traces); 3 points - few; 4 points - diffuse (moderately); 5 points - many-,; 6 points - very many
From the text: (§1) The efficacy of L-Lys-L-Glu dipeptide was estimated on the model of purulent incised crushed wounds of the femural soft tissues in shinshilla rabbits of both sexes with body weight 2-3 kg. Therefore, the rabbits underwent shaving in the area of femural soft tissues with subsequent incision 5 cm long and 2 sm deep. Soft tissues (muscles, subcutaneous fat) were crushed with Kocher 's forcepts and infected with the pathogenic mixture Staphylococcus aureus, strain 186. Afterwards, the wound was sutured. In 72 hours the sutures were lifted; and the wound was treated with 3% solution of hydrogen peroxide.
(§2) The animals of experimental group were injected intramuscularly every day for five days with dipeptide L-Lys-L-Glu in a single dose 1 μkg per injection. Control rabbits were injected with sodium chloride solution according to the same scheme. In the process of treatment the wounds were treated with antiseptic remedies for external use.
(§3) The estimation of L-Lys-L-Glu dipeptide efficacy in the dynamics of the inflammatory process regression was based on the terms of crust rejection and wound clearance from the pyo-necrotic mass, and appearance of the granular tissue in the wound and beginning of edge epithelization. […] The activity of tissue enzymes was also estimated (5,6,7).

[3] = tested on: purulent incised crushed wounds of the femural soft tissues; test: as above; type: in vivo, shinshilla rabbits; design: key: 1 point - absent; 2 points - single (traces); 3 points - few; 4 points - diffuse (moderately); 5 points - many-,; 6 points - very many; conditions: rabbits, 1 μkg i.m. daily 5 days
From the text: as §1, §2, §3

[4] = tested on: duodenum mucous membrane cells; test: Regeneration of the intestinal mucous membrane after radiation injury; type: in vivo, white male rats of the Wistar line; conditions: 8th day
Method: The work has been performed on 24 two-month-old white male rats of the Wistar line, weighing 90-100 grams. The following three groups of animals were researched;
2 group—control (irradiated animals);
3 group—irradiated animals injected with L-Lys-L-Glu dipeptide.
A general single γ—irradiation of 6 Gy, inducing “the syndrome of intestinal death”, was made by the cobalt apparatus GUB 20000, with the dose capacity of 200 rad/min.
L-Lys-L-Glu dipeptide was injected 24 hours after the irradiation—0.5 μkg in 0.5 ml of the […]—intraperitoneally during 5 days. The animals from the first and second groups received the […] by the same scheme.
The study of L-Lys-L-Glu dipeptide's action has been performed on the proximal section of the duodenum of irradiated animals. The animals were killed under nembutal narcosis (50 mg/kg on the 8th day after irradiation (beginning of the period of repair regeneration). Pieces of the duodenum were being preserved during 24 hours by Karnovsky for the electronic microscopy.
The ultra-structural research was conducted under the JEM-100S microscope (JEOL, Japan) at the ultra-thin microscopic sections prepared on the LKB-7A ultra-microtome (LKB, Sweden) and contrasted by uranilacetatc and lead cytrate.
Mast cells were selectively stained with 1% solution of toluidine blue (Fluka) in 0,5 M HCl, with pH—0.5 (8,9).
To reveal MTL-positive cells, were used rabbits' antibodies to metal-tioneins (1-2000).
Immunohistochemical identification of antigenes at the histological sections was made according to the main requirements to immune-peroxydase methods (10,11).
The quantity research was conducted with the help of the system of computer analysis of microscopic images—IMSTAR (Imstar, France)—the Morphostar-2 and Colquant-2 license applied software were employed, in accordance with the general principles of stereology in morphometry (12, 13). For each animal, the calculation of corresponding structures was made In ten visual eye sights by three sections of the studied organ. The mitotic index (1mit) and the index of proliferating ability (Ipcna) of the duodenum cells were defined in 10-15 standard sections of crypts, with the overall contents of not less than 1000 nuclei of enterocytes. The test area for finding serotonin-positive and mast cells covered not less than 3 mm^2. MML-positive cells were counted in 100 duodenum crypts.

[5] = rabbits, 1 μkg i.m. daily 5 days
[6] = rabbits, 1 μkg i.m. daily 5 days, day 6
[7] = rabbits, 1 μkg i.m. daily 5 days, day 14
[8] = rabbits, 1 μkg i.m. daily 5 days, day 21
[9] = rabbits, 1 μkg i.m. daily 5 days, day 29
[10] = rabbits, 1 μkg i.m. daily 5 days, day 40
[11] = irradiated rats 6 Gy, 0.5 μkg i.p. during 5 days, duodenum
[12] = irradiated rats 6 Gy, 0.5 μkg i.p. during 5 days, duodenum crypts

Question: `NCCCC[C@H](N)C(=O)N[C@@H](CCC(=O)O)C(=O)O` [L-Lys-L-Glu dipeptide, L-lysil-L-glutamic acid] (H-Lys-Glu-OH) was tested. Which toxic effects ([1]; doses several thousand times exceeding the therapeutic) did it give?
Answer: The toxic effects was “does not induce any toxic effects”.

Question: What about the “changes in general state, behavior, locomotor activity, integument, physiological discharges” value ([1]; mice, single i.m. 1-5 mg/kg, 72 hours and 14 days) of the same molecule?
Answer: The value was “No changes in the general state, behavior, locomotor activity, hairy or skin integument or physiological discharges”.

Question: What about the animal deaths ([1]; mice, single i.m. 1-5 mg/kg, in 72 hours and in 14 days) of the same molecule?
Answer: Its animal deaths is “none of the animals in either of the groups died”.

Question: And the “activity of acid phosphatase in histiocytes” value ([2]; phase of proliferation (14-28 days))?
Answer: The value was “high activity of acid phosphatase in histiocytes”.

Question: What about the “Terms of complete clearance of the wound surface from necrotizing tissues” value [2, 5] of the same molecule?
Answer: Its value is 14.2 + −1.3* days.

Question: What about the “Terms of the wound epithelization” value [2, 5] of the same molecule?
Answer: The value was 24.9 + −1.9* days.

Question: What about the “Terms of tile onset of necrotizing tissue rejection form the wound surface” value [2, 5] of the same molecule?
Answer: Its value is 8.3 + −1.1*.

Question: And the Fibroblasts [2, 6]?
Answer: Its Fibroblasts is 4*.

Question: And the Histiocytes [2, 6]?
Answer: Its Histiocytes is 4.

Question: And the Leukocyles [2, 6]?
Answer: Its Leukocyles is 5.

Question: What about the Macrophases [2, 6] of the same molecule?
Answer: Its Macrophases is 3.

Question: What about the Necrosis [2, 6] of the same molecule?
Answer: The Necrosis was 3*.

Question: What about the Fibroblasts [2, 7] of the same molecule?
Answer: The Fibroblasts was 5*.

Question: What about the Histiocytes [2, 7] of the same molecule?
Answer: Its Histiocytes is 5*.

Question: What about the Leukocyles [2, 7] of the same molecule?
Answer: The Leukocyles was 5.

Question: What about the Macrophases [2, 7] of the same molecule?
Answer: The Macrophases was 3.

Question: And the Necrosis [2, 7]?
Answer: Its Necrosis is 2*.

Question: What about the Fibroblasts [2, 8] of the same molecule?
Answer: The Fibroblasts was 5.

Question: What about the Histiocytes [2, 8] of the same molecule?
Answer: Its Histiocytes is 5.

Question: What about the Leukocyles [2, 8] of the same molecule?
Answer: Its Leukocyles is 4.

Question: What about the Macrophases [2, 8] of the same molecule?
Answer: Its Macrophases is 2.

Question: What about the Necrosis [2, 8] of the same molecule?
Answer: Its Necrosis is 2*.

Question: What about the Fibroblasts [2, 9] of the same molecule?
Answer: The Fibroblasts was 5.

Question: What about the Histiocytes [2, 9] of the same molecule?
Answer: Its Histiocytes is 4.

Question: And the Leukocyles [2, 9]?
Answer: Its Leukocyles is 4*.

Question: What about the Macrophases [2, 9] of the same molecule?
Answer: Its Macrophases is 2.

Question: What about the Necrosis [2, 9] of the same molecule?
Answer: Its Necrosis is 1.

Question: And the Fibroblasts [2, 10]?
Answer: Its Fibroblasts is 6*.

Question: And the Histiocytes [2, 10]?
Answer: Its Histiocytes is 6*.

Question: What about the Leukocyles [2, 10] of the same molecule?
Answer: Its Leukocyles is 2.

Question: And the Macrophases [2, 10]?
Answer: The Macrophases was 2*.

Question: What about the Necrosis [2, 10] of the same molecule?
Answer: Its Necrosis is 1.

Question: And the “activity of alkaline phosphatase in foci of leukocytory infiltration and vascular endothelium” value ([2]; rabbits, wound tissue)?
Answer: Its value is “high activity of alkaline phophotase”.

Question: And the “Alcaline phosphotase in leukocytes” value ([3]; day 6)?
Answer: Its value is 6*.

Question: What about the “Alcaline phosphotase in vessels” value ([3]; day 6) of the same molecule?
Answer: The value was 6*.

Question: And the “Acid phosphotase in histiocytes” value ([3]; day 14)?
Answer: Its value is 6*.

Question: And the “Alcaline phosphotase in leukocytes” value ([3]; day 14)?
Answer: The value was 6*.

Question: What about the “Alcaline phosphotase in leukocytes” value ([3]; day 28) of the same molecule?
Answer: Its value is 6.

Question: What about the “Alcaline phosphotase in vessels” value ([3]; day 28) of the same molecule?
Answer: Its value is 4.

Question: What about the “Alcaline phosphotase in vessels” value ([3]; day 40) of the same molecule?
Answer: The value was 4*.

Question: What about the “NMC/1 mm^2 (quantity of mast cells/1 square mm)” value [4, 11] of the same molecule?
Answer: The value was 24 ± 3 /1 mm^2.

Question: And the “NMT/100 crypts (quantity of L-positive cells in 100 intestine crypts)” value [4, 11]?
Answer: The value was 102 ± 9 /100 crypts.

Question: And the “Pser (volume density of serotonin-immunopositive cells)” value [4, 11]?
Answer: Its value is 0.71 ± 0.09%.

Question: What about the “IPCNA (index of cell proliferative ability-PCNA)” value [4, 12] of the same molecule?
Answer: Its value is 49.89% and 49.8 ± 0.7 %.

Question: And the “Imit (mitotic index)” value [4, 12]?
Answer: The value was 4.7% and 4.7 ± 0.1%.

Question: And the “MTL-positive cells in the crypts' base” value ([4]; irradiated rats)?
Answer: Its value is “tendency to the increase of number and intensity of immune-staining”.

Question: And the “quantitative density of enterochromaffinn cells” value ([4]; irradiated rats)?
Answer: Its value is “practically gets equal to that of healthy animals”.

From patent US6642201B1, “Use of a dipeptide for stimulating repair processes” (priority 1998, dated 2003)
